In article PMC10498667 (Chemical Science, 2023):

Assays:
Aβ40 = molecular target: T1, Aβ40 (Homo sapiens, UniProt P05067); test: Aβ40 aggregation inhibition experiments (gel/western blot, TEM); format: biochemical; settings: flavonoid 50 μM, 24 h
T1 construct: Ab40 ([…]-; purchased Peptide Institute, Inc. (Osaka, Japan)
Procedure: To verify whether a series of nine flavonoids can modulate the aggregation of Aβ with and without metal ions, the molecular weight (MW) distribution and morphology of the resultant Aβ species were determined by gel electrophoresis with western blotting (gel/western blot) using an anti-Aβ antibody (6E10) and transmission electron microscopy (TEM), respectively. Two types of experiments were carried out employing two major Aβ isoforms, i.e., Aβ42 and Aβ40:[25] (i) inhibition studies to identify the effect of 1–5, 1a, 1b, 4a, and 4b on the formation of Aβ aggregates; (ii) disaggregation studies to evaluate if the flavonoids with reactivities towards Aβ aggregation in inhibition studies can disassemble preformed Aβ aggregates or modulate their further aggregation, as illustrated in Fig. 4 and S5–S9. ^† Moreover, the solutions containing the flavonoids and Cu(II) were probed by electronic absorption (Abs) spectroscopy to monitor their metal binding. […] As expected, no Abs change of 1a and 4a composed of methoxy groups on the A ring was detected by addition of Cu(II). […]
(§1) Ab Aggregation Experiments. Ab was dissolved in ammonium hydroxide [1% w/w NH4OH (aq)] and the resulting solution was aliquoted, lyophilized overnight, and stored at –80 °C. A stock solution of Ab was then prepared by dissolving the lyophilized peptide with NH4OH (1% w/w, aq; 10 µL) and diluting with ddH2O. All Ab samples were prepared following previously reported procedures.21,22 The concentration of the peptide solution was determined by measuring its […]
(§2) solution (20 mM HEPES, pH 7.4, 150 mM NaCl) was used for preparing Ab samples. For the inhibition studies, flavonoids (final concentration, 50 µM; 1% v/v DMSO) were added to the samples of Ab (25 µM) in the absence and presence of CuCl2 or ZnCl2 (25 µM) followed by incubation for 24 h at 37 °C with constant agitation. For the disaggregation studies, Ab (25 µM) was incubated with and without CuCl2 or ZnCl2 (25 µM) for 24 h at 37 °C with constant agitation to generate preformed Ab aggregates. The resultant Ab aggregates were then treated with flavonoids (50 µM) and incubated for additional 24 h with constant agitation. For the additional disaggregation experiments, preformed Ab42 aggregates (25 µM) or Ab42 seeds (10% v/v) with or without metal ions (25 µM for CuCl2 and ZnCl2) were incubated with flavonoids (50 µM) for 24 h with constant agitation. The resultant Ab aggregates were then treated with freshly prepared Ab42 […]
(§3) (25 µM) and incubated for additional 24 h with constant agitation.
(§4) Gel/Western Blot. The resultant Ab species from the aggregation experiments were analyzed by gel/Western blot using an anti-Ab antibody (6E10, Covance, Princeton, NJ, USA).21,22 Each sample (10 µL) was separated on a 10–20% tricine gel (Invitrogen). Following separation, the proteins were transferred onto nitrocellulose membranes and blocked with bovine serum albumin (BSA, 3% w/v; Sigma-Aldrich) in Tris-buffered saline (TBS) containing 0.1% v/v Tween-20 (Sigma-Aldrich) (TBS-T) for 4 h at room temperature or overnight at 4 °C. The membranes were incubated with 6E10 (1:2,000) in the solution of BSA (2% w/v in TBS-T) for 4 h at room temperature. […] A homemade ECL kit21–23 was used to visualize gel/Western blots on a ChemiDoc MP Imaging System (Bio-Rad).
TEM. Samples for TEM were prepared following previously reported methods.22,24 Glow-discharged grids (Formvar/Carbon 300-mesh; Electron Microscopy Sciences, Hatfield, PA, USA) were treated with Ab samples (25 µM; 7.5 µL) for 2 min at room temperature. Excess sample was removed using filter paper followed by washing with ddH2O (3x). Each grid incubated with uranyl […]

Aβ42 = molecular target: T2, Aβ42 (Homo sapiens, UniProt P05067); test: Additional disaggregation experiments (preformed aggregates or seeds with Aβ monomers); format: biochemical; settings: metal-free Aβ42 and metal–Aβ42; flavonoid 50 μM
T2 construct: purchased Peptide Institute, Inc. (Osaka, Japan)
Procedure: To probe the secondary nucleation of disassembled Aβ aggregates induced by the flavonoids on Aβ monomers, additional disaggregation experiments were conducted by incubating preformed aggregates of metal-free and metal-treated Aβ or their seeds with Aβ monomers. […] These indications describe the significance of three hydroxyl groups on the A ring in the flavonoid structure to impact the aggregation of metal-free Aβ and metal–Aβ. […]
as §1
solution (20 mM HEPES, pH 7.4, 150 mM NaCl) was used for preparing Ab samples. […]
as §2, with “For” for “solution (20 mM HEPES, pH 7.4, 150 mM NaCl) was used for preparing Ab samples. For the inhibition studies, flavonoids (final concentration, 50 µM; 1% v/v DMSO) were added to the samples of Ab (25 µM) in the absence and presence of CuCl2 or ZnCl2 (25 µM) followed by incubation for 24 h at 37 °C with constant agitation. For”
as §3, §4
TEM. […]
Cu(II)-binding Studies. The interaction of flavonoids with Cu(II) was detected by Abs spectroscopy in 20 mM HEPES, pH 7.4, 150 mM NaCl. […] The mixture solution was allowed to equilibrate for 5 min after the addition of CuCl2 at room temperature before the spectra were recorded. […]

T2 sequence (P05067 672-713 limits assumed): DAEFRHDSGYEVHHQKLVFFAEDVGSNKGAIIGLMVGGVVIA
T1 sequence (P05067 672-711 limits assumed): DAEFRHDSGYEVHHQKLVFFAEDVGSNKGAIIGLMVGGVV

Row | Structure (SMILES) | morphology of resultant aggregates (TEM) (Aβ40; Cu(II)–Aβ40) | MW distribution of resultant species (gel/western blot) (Aβ40; Cu(II)–Aβ40 and Zn(II)–Aβ40) | morphology of resultant aggregates (TEM) (Aβ40; Zn(II)–Aβ40) | MW distribution of resultant species (gel/western blot) (Aβ40; metal-free Aβ40) | morphology of resultant aggregates (TEM) (Aβ40; metal-free Aβ40) | MW distribution after incubating treated preformed aggregates or seeds with Aβ monomers (secondary nucleation) (Aβ42)
1 | O=c1c(-c2ccccc2)coc2cc(O)c(O)c(O)c12 [4b, 5,6,7-trihydroxyisoflavone] | both amorphous and fibrillary aggregates | diverse MW distribution | a bunch of fibrillary species with chopped filamentous aggregates | reduced | shorter and thinner fibrils | notable variations in the MW distribution
2 | O=c1cc(-c2ccccc2)oc2ccc(O)c(O)c12 [compound 3, 5,6-dihydroxyflavone] | both amorphous and fibrillary aggregates |  |  |  |  | reactivity specifically towards metal–Aβ42 species
3 | O=c1cc(-c2ccccc2)oc2cc(O)c(O)c(O)c12 [compound 4, baicalein] | both amorphous and fibrillary aggregates |  |  | reduced | shorter and thinner fibrils | notable variations in the MW distribution
4 | O=c1cc(-c2ccccc2)oc2c(Cl)c(O)c(O)c(O)c12 [compound 5, 8-chlorobaicalein] | chopped filamentous Cu(II)–Aβ40 aggregates |  |  | increased the band intensity | shorter and thinner fibrils | notable variations in the MW distribution
